System: not given
Test: not given
Conditions: not given

Row | Molecule | melting point [°C]
1 | O=[N+]([O-])c1ccc(CSc2ncnc3c2nc(NC2CCCC2)n3Cc2ccccc2)cc1 [Example 14, 9-benzyl-8-(cyclopentylamine)-6-(4-nitrobenzyl)-mercaptopurine] | 150 to 151
2 | O=[N+]([O-])c1ccc(CSc2ncnc3c2nc(NC2CCCCC2)n3Cc2ccccc2)cc1 [Example 15, 9-benzyl-8-(cyclohexylamine)-6-(4-nitrobenzyl)-mercaptopurine] | 66 to 68

Target: T1, Nucleoside Transporter (Homo sapiens, UniProt Q99808)
T1 sequence (Q99808 1-456): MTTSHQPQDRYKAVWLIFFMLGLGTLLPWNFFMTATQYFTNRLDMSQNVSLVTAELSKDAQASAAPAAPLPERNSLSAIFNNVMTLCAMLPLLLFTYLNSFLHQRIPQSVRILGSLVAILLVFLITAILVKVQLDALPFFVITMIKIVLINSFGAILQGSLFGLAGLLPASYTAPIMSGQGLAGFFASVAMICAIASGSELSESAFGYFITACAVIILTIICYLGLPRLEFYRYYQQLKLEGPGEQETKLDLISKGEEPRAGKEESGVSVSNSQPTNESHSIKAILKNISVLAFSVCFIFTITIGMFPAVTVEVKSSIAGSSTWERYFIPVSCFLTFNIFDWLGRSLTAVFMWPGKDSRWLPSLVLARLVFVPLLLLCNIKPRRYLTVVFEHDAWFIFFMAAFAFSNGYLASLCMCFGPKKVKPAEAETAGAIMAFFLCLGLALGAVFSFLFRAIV
Test: not given
Conditions: pH 7.4

Row | Molecule | Ki [nM]
3 | OC[C@H]1O[C@@H](n2c(N3CCCC3)nc3c(SCc4ccccc4)ncnc32)[C@H](O)[C@@H]1O [Example 11, 6-benzyl-8-pyrrolidino-thioinosine] | 410
4 | 6-benzyl-8-(cyclohexylamino)-thioinosine [Example 10] | 0.94
5 | OC[C@H]1O[C@@H](n2c(NC3CCCC3)nc3c(SCc4ccccc4)ncnc32)[C@H](O)[C@@H]1O [Example 9, 6-benzyl-8-(cyclopentylamino)-thioinosine] | 0.64
6 | O=[N+]([O-])c1ccc(CSc2ncnc3c2nc(NC2CCCC2)n3Cc2ccccc2)cc1 [Example 14, 9-benzyl-8-(cyclopentylamine)-6-(4-nitrobenzyl)-mercaptopurine] | 29
7 | 6-benzyl-8-(n-butylamino)-thioinosine [Example 4] | 5.4
8 | OC[C@H]1O[C@@H](n2c(NC3CC3)nc3c(SCc4ccccc4)ncnc32)[C@H](O)[C@@H]1O [Example 8, 6-benzyl-8-(cyclopropylamino)-thioinosine] | 3
9 | O=[N+]([O-])c1ccc(CSc2ncnc3c2nc(NC2CCCCC2)n3Cc2ccccc2)cc1 [Example 15, 9-benzyl-8-(cyclohexylamine)-6-(4-nitrobenzyl)-mercaptopurine] | 55
10 | CCCNc1nc2c(SCc3ccccc3)ncnc2n1[C@@H]1O[C@H](CO)[C@@H](O)[C@H]1O [Example 3, 6-benzyl-8-(n-propylamino)-thioinosine] | 5.3
11 | 6-benzyl-8-(n-pentylamino)-thioinosine [Example 5] | 2.3
12 | CCC(C)CNc1nc2c(SCc3ccccc3)ncnc2n1[C@@H]1O[C@H](CO)[C@@H](O)[C@H]1O (stereo partly shown) [Example 7, 6-benzyl-8-[(2-methyl-butyl)-amino]-thioinosine] | 3.6
13 | 9-benzyl-6-(4-nitrobenzyl)-8-pyrrolidino-mercaptopurine [Example 16] | 1520
14 | OC[C@H]1O[C@@H](n2c(N3CCCCC3)nc3c(SCc4ccccc4)ncnc32)[C@H](O)[C@@H]1O [Example 12, 6-benzyl-8-piperidino-thioinosine] | 744
15 | CCNc1nc2c(SCc3ccccc3)ncnc2n1[C@@H]1O[C@H](CO)[C@@H](O)[C@H]1O [Example 2, 6-benzyl-8-ethylamino-thioinosine] | 9.5

Target: T1, Nucleoside Transporter
Test: biochemical
Conditions: not given

Row | Molecule | Ki [nM]
16 | c1ccc(CSc2ncnc3c2nc(N2CCOCC2)n3Cc2ccccc2)cc1 [Example 20, 9-benzyl-6-benzylsulfanyl-8-morpholin-4-yl-9H-purine] | 1390
17 | c1ccc(CSc2ncnc3c2nc(N2CCCC2)n3Cc2ccccc2)cc1 [Example 21, 9-benzyl-6-benzylsulfanyl-8-pyrrolidin-1-yl-9H-purine] | 514
18 | c1ccc(Cn2c(N3CCOCC3)nc3c(SCc4ccc5nonc5c4)ncnc32)cc1 [Example 19, 6-(benzo[c][1,2,5]oxadiazole-5-ylmethylsulfanyl)-9-benzyl-8-morpholin-4-yl-9H-purine] | 122

Target: T1, Nucleoside Transporter
Test: radioligand binding assay with [3H]NBTI on human erythrocyte membranes
Conditions: [[…] 1.5 nM, test concentration not printed (footnote c missing)

Row | Molecule | Binding Nucleoside Transporter (value printed as % in the Ki column) [%^c]
19 | OC[C@H]1O[C@@H](n2c(N3CCOCC3)nc3c(SCc4ccccc4)ncnc32)[C@H](O)[C@@H]1O [Example 13] | 33

— US7781432B2 (Gruenenthal GmbH, priority 2004, dated 2010)
